Laboratory results taken from PubChem BioAssay (NCI).
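In this assay, cells in 96-well plates receive the compound at five concentrations for 48 hours. Endpoints are linearly interpolated between the surrounding concentrations. GI50 = concentration required for 50% inhibition of growth. TGI denotes the concentration required for complete inhibition of growth.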

Experiments:
Assay in all cases: DTP human tumour cell line panel, 48 h
COLO 205 colon = test system: COLO 205 colon
SF-268 CNS = test system: SF-268 CNS
MDA-MB-435 = test system: MDA-MB-435
PC-3 prostate = test system: PC-3 prostate
UACC-62 melanoma = test system: UACC-62 melanoma
NCI-H23 lung = test system: NCI-H23 lung
RXF 393 renal = test system: RXF 393 renal
SN12C renal = test system: SN12C renal
M14 melanoma = test system: M14 melanoma
SW-620 colon = test system: SW-620 colon
MALME-3M melanoma = test system: MALME-3M melanoma
T-47D breast = test system: T-47D breast
HCT-15 colon = test system: HCT-15 colon
UACC-257 melanoma = test system: UACC-257 melanoma
EKVX NSCLC = test system: EKVX NSCLC
NCI-H226 lung = test system: NCI-H226 lung
SF-539 CNS = test system: SF-539 CNS
SNB-75 CNS = test system: SNB-75 CNS
HOP-92 NSCLC = test system: HOP-92 NSCLC
OVCAR-4 ovarian = test system: OVCAR-4 ovarian
K-562 leukemia = test system: K-562 leukemia
HCC-2998 colon = test system: HCC-2998 colon
DU-145 prostate = test system: DU-145 prostate
ACHN renal = test system: ACHN renal
SK-MEL-2 melanoma = test system: SK-MEL-2 melanoma
SR leukemia = test system: SR leukemia
SK-MEL-5 melanoma = test system: SK-MEL-5 melanoma
SNB-19 CNS = test system: SNB-19 CNS
MDA-MB-231 breast = test system: MDA-MB-231 breast
RPMI-8226 leukemia = test system: RPMI-8226 leukemia
NCI-H460 lung = test system: NCI-H460 lung
TK-10 renal = test system: TK-10 renal
UO-31 renal = test system: UO-31 renal
SF-295 CNS = test system: SF-295 CNS
NCI-H522 lung = test system: NCI-H522 lung
A498 renal = test system: A498 renal
HOP-62 NSCLC = test system: HOP-62 NSCLC
IGROV1 ovarian = test system: IGROV1 ovarian
HL-60(TB) leukemia = test system: HL-60(TB) leukemia
HT29 colon = test system: HT29 colon
OVCAR-5 ovarian = test system: OVCAR-5 ovarian
HS 578T breast = test system: HS 578T breast
BT-549 breast = test system: BT-549 breast
SK-MEL-28 melanoma = test system: SK-MEL-28 melanoma
KM12 colon = test system: KM12 colon
CCRF-CEM leukemia = test system: CCRF-CEM leukemia
CAKI-1 renal = test system: CAKI-1 renal
MCF7 breast = test system: MCF7 breast

SMILES: NCCCNc1nc2ccccc2c2c(=O)c3cccc(F)c3sc12
- GI50 (COLO 205 colon): 1600 nM
- TGI (COLO 205 colon): 3690 nM
- GI50 (SF-268 CNS): 1470 nM
- TGI (SF-268 CNS): 3350 nM
- GI50 (MDA-MB-435): 1770 nM
- TGI (MDA-MB-435): 3390 nM
- GI50 (PC-3 prostate): 1670 nM
- TGI (PC-3 prostate): 3260 nM
- GI50 (UACC-62 melanoma): 1670 nM
- TGI (UACC-62 melanoma): 3130 nM
- GI50 (NCI-H23 lung): 1540 nM
- TGI (NCI-H23 lung): 3030 nM
- GI50 (RXF 393 renal): 1430 nM
- TGI (RXF 393 renal): 2810 nM
- GI50 (SN12C renal): 1280 nM
- TGI (SN12C renal): 2700 nM
- GI50 (M14 melanoma): 1800 nM
- TGI (M14 melanoma): 3560 nM
- GI50 (SW-620 colon): 1100 nM
- TGI (SW-620 colon): 2490 nM
- GI50 (MALME-3M melanoma): 1570 nM
- TGI (MALME-3M melanoma): 3050 nM
- GI50 (T-47D breast): 1580 nM
- TGI (T-47D breast): 3740 nM
- GI50 (HCT-15 colon): 1130 nM
- TGI (HCT-15 colon): 2390 nM
- GI50 (UACC-257 melanoma): 1970 nM
- TGI (UACC-257 melanoma): 3810 nM
- GI50 (EKVX NSCLC): 1500 nM
- TGI (EKVX NSCLC): 3000 nM
- GI50 (NCI-H226 lung): 1450 nM
- TGI (NCI-H226 lung): 3060 nM
- GI50 (SF-539 CNS): 1590 nM
- TGI (SF-539 CNS): 2970 nM
- GI50 (SNB-75 CNS): 1610 nM
- TGI (SNB-75 CNS): 3210 nM
- GI50 (HOP-92 NSCLC): 1290 nM
- TGI (HOP-92 NSCLC): 3390 nM
- GI50 (OVCAR-4 ovarian): 1760 nM
- TGI (OVCAR-4 ovarian): 3580 nM
- GI50 (K-562 leukemia): 1360 nM
- TGI (K-562 leukemia): 4150 nM
- GI50 (HCC-2998 colon): 1640 nM
- TGI (HCC-2998 colon): 3410 nM
- GI50 (DU-145 prostate): 1230 nM
- TGI (DU-145 prostate): 2530 nM
- GI50 (ACHN renal): 1200 nM
- TGI (ACHN renal): 2430 nM
- GI50 (SK-MEL-2 melanoma): 1770 nM
- TGI (SK-MEL-2 melanoma): 3660 nM
- GI50 (SR leukemia): 1570 nM
- TGI (SR leukemia): > 100000 nM
- GI50 (SK-MEL-5 melanoma): 1690 nM
- TGI (SK-MEL-5 melanoma): 3080 nM
- GI50 (SNB-19 CNS): 1570 nM
- TGI (SNB-19 CNS): 3000 nM
- GI50 (MDA-MB-231 breast): 1280 nM
- TGI (MDA-MB-231 breast): 2750 nM
- GI50 (RPMI-8226 leukemia): 2030 nM
- TGI (RPMI-8226 leukemia): 4750 nM
- GI50 (NCI-H460 lung): 493 nM
- TGI (NCI-H460 lung): 1770 nM
- GI50 (TK-10 renal): 1940 nM
- TGI (TK-10 renal): 3470 nM
- GI50 (UO-31 renal): 1010 nM
- TGI (UO-31 renal): 2240 nM
- GI50 (SF-295 CNS): 1740 nM
- TGI (SF-295 CNS): 3190 nM
- GI50 (NCI-H522 lung): 1610 nM
- TGI (NCI-H522 lung): 3280 nM
- GI50 (A498 renal): 1670 nM
- TGI (A498 renal): 3100 nM
- GI50 (HOP-62 NSCLC): 1500 nM
- TGI (HOP-62 NSCLC): 3150 nM
- GI50 (IGROV1 ovarian): 798 nM
- TGI (IGROV1 ovarian): 2220 nM
- GI50 (HL-60(TB) leukemia): 1880 nM
- TGI (HL-60(TB) leukemia): 3950 nM
- GI50 (HT29 colon): 1250 nM
- TGI (HT29 colon): 2690 nM
- GI50 (OVCAR-5 ovarian): 1600 nM
- TGI (OVCAR-5 ovarian): 3010 nM
- GI50 (HS 578T breast): 1720 nM
- TGI (HS 578T breast): 3970 nM
- GI50 (BT-549 breast): 11500 nM
- TGI (BT-549 breast): 29600 nM
- GI50 (SK-MEL-28 melanoma): 1770 nM
- TGI (SK-MEL-28 melanoma): 3230 nM
- GI50 (KM12 colon): 1610 nM
- TGI (KM12 colon): 3040 nM
- GI50 (CCRF-CEM leukemia): 1420 nM
- TGI (CCRF-CEM leukemia): 4160 nM
- GI50 (CAKI-1 renal): 1420 nM
- TGI (CAKI-1 renal): 2750 nM
- GI50 (MCF7 breast): 1010 nM
- TGI (MCF7 breast): 2400 nM
